Where two headings read alike, the source gives them in different places.
Key:
[1] = test system: E. coli ATCC #10536; assay: Synergy test: high resolution MBC microtiter plate assay in phosphate buffer containing 35% dipropylene glycol, 15 seconds contact; assay type: cell-based, Escherichia coli; details: E. coli 10536, complete kill in 15 seconds, phosphate buffer with 35% DPG
Description: One measure of synergy is the industrially accepted method described by Kull, F. C.; Eisman. P. C.; Sylwestrowicz, H. D. and Mayer, R. L., in Applied Microbiology 9:538-541 (1961), using the ratio determined by the formula: Qa/QA÷Qb/QB=Synergy Index (“SI”) wherein: QA=concentration of compound A (first component) in percent, acting alone, which produced an end point (MBC of Compound A). […]=concentration of compound A in percent, in the mixture, which produced an end point. QB=concentration of compound B (second component) in percent, acting alone, which produced an end point (MBC of Compound B). Qb=concentration of compound B in percent, in the mixture, which produced an end point.
When the sum of Qa/QA and Qb/QB is greater than one, antagonism is indicated. […] The lower the SI, the greater is the synergy shown by that particular mixture. The minimum biocidal concentration (MBC) of a microbicide is the lowest concentration tested under a specific set of conditions that provides complete kill of the tested microorganisms.
Synergy tests were conducted using standard microtiter plate assays with phosphate buffer containing 35% dipropylene glycol (DPG). In this method, a wide range of combinations of chemicals was tested by conducting high resolution MBC assays of Component (A) in the presence of various concentrations of Component (B). High resolution MBCs were determined by adding varying amounts of microbicide to one column of a microtiter plate and doing subsequent ten-fold dilutions using an automated liquid handling system to obtain a series of closely spaced endpoints. The MBC plate was inoculated one column at a time with the test microorganism. An aliquot of the inoculated well was transferred at 15 seconds to a plate containing a neutralizing agent (D/E Neutralizing Broth), mixed and held for 5 minutes before being transferred to a growth plate containing trypticase soy broth (TSB). The TSB plate was incubated at 37° C. and read for the presence/absence of growth at 24 hours. The lowest level tested that provided complete kill (as evidenced by no growth in the microtitre plate) of the test organisms in 15 seconds is the minimum biocidal concentration (MBC).
The synergy of the combinations of the present invention was determined against a bacterium, Esherichia coli (E. coli—ATCC #10536), at a concentration of approximately 1×10^8 bacteria per mL. This microorganism is representative of natural contaminants in many consumer and industrial applications.

[2] = test system: Escherichia coli (E. coli—ATCC #10536); assay: Automated assessment of efficacy in model surfactant base (2.85% sodium cocoyl glycinate + 1.85% sodium lauroamphoacetate, pH 10), 15 seconds exposure, delta OD450/OD590 in D/E quench; assay type: cell-based; details: for MBC: in 2.85% sodium cocoyl glycinate + 1.85% sodium lauroamphoacetate solution at pH 10, E. coli
Method: Solutions were prepared such that the concentrations of the surfactant components and test actives were 1.1× the final desired concentration in order to allow for dilution with the bacterial inoculum in the test. The solutions were manually adjusted to pH 10.0 by dropwise addition of sodium hydroxide solution, as measured with a pH meter at ambient temperature.
Tests were conducted using standard microtiter plate assays using an automated liquid handling system. 270 μl of the surfactant test solution was pipetted into each well of the microtitre plate and 30 μl of the bacterial suspension was then added. After exactly 15 seconds of bacterial exposure, a 30 μl volume of bacterial cells was withdrawn and transferred to 270 μl of D/E quench solution. After 5 minutes in the D/E quench, the optical density (OD) was measured for each plate in turn at two specific wavelengths (450 nm and 590 nm). These provide a dual check of antimicrobial activity, as the OD450 reading is specific for the yellow colour of D/E quench when bacterial growth is observed, whereas OD590 is specific for the initial purple colour of the D/E quench which is retained if no bacterial growth is observed. After the time zero OD measurements, plates were then incubated at 37° C. overnight (16 hours) before repeating the OD measurements. Delta OD values were calculated by subtracting […]. Bacterial growth is observed as an increase in OD450 and a decrease in ΔOD590. To identify antibacterially efficacious systems (those preventing appreciable bacterial growth after incubation), the following threshold changes in OD readings have been adopted: if (1). OD450 increases by less than 0.2 absorbance unit on incubation and (2). OD590 decreases by less than 0.35 unit on incubation. Conversely, where OD450 increases by more than 0.2 AU and OD590 decreases by more than 0.35 unit after incubation, corresponding to a colour shift from purple to yellow, the test system allows bacterial growth and is not deemed efficacious. Four replicate measurements in the same plate have been made for each test system. The number of replicate wells showing either bacterial growth or no growth is also readily assessed by eye by following the colour change.
Dose responses for individual components and binary mixtures of actives at a fixed concentration ratio were generated by sequential dilution of liquors with further surfactant solution to obtain a series of endpoints.
In some selected cases, the combinations were also tested at the weight ratio 1:1.
The method used was the same as in the above Table.

[3] = test system: Staphylococcus aureus (10788 strain); assay: Antimicrobial efficacy of actives against S. aureus in water, 15 seconds contact, NMBS; assay type: cell-based; details: for NMBS: 15 s
Method: Selected materials were also tested against a representative Gram positive Staphylococcus aureus.
The following assay describes the testing of 8 materials using 6 dilutions across half of a 96-well micro titre plate (MTP). Using this approach it is possible to assay 16 actives (without replicates) with one full dilution plate, replicating this set up in two halves of the plate columns, 1-6 and 7-12.
Bacterial stock (30 μl) was then added to the prepared 270 μl of the solution of actives in the Screening Plate and mixed, using a multichannel pipette with 8 tips to aspirate and dispense the same volume of bacterial stock in parallel to 8 wells in rows A-H. After a contact time of 15 seconds, the mixtures were quenched by transferring 30 μl volumes of the mixtures into the 270 μl D/E neutralising solution in the prepared dilution plate, using aspiration to mix. After exactly 5 minutes in the D/E neutralising solution, […] were transferred from column 1 to column 2 of the Dilution MTP and mixed, before transferring further 30 μl volumes from column 2 into column 3. This process was repeated serially diluting the bacteria across the plate to column 6.
30 μl volumes from each well in the Dilution MTP were transferred onto pre-labelled segment of Tryptone Soya Agar (TSA) plates starting from the lowest bacterial concentration (highest dilution, column 6) to the highest bacterial concentration (column 1). The TSA plates were allowed to stand for ca. 2 hours so that the 30 μl inocula spots could dry and the plates were then inverted and incubated overnight at 37° C. before enumerating the bacterial colonies at the labelled dilutions to determine the effects of the actives on bacterial growth.
Mean bacterial survival numbers NMBS (expressed in Log CFU/ml) are obtained by first determining the segment of the TSA plate where the number of bacterial colonies is countable. From the colony number in this segment. NMBS is calculated by the formula: NMBS=log {Ncol·10^DF·100/3} Here, Ncol is the colony count, and DF is the dilution factor taken from the MTP-well corresponding to the TSA plate segment (i.e. DF may range from 1 for the quench, to 6 for the highest dilution). The factor 100/3 is a conversion factor from the volume of the inocula spot to one milliliter.
Every assay test was performed in triplicate.
Thus, a value of NMBS as of about 7 corresponds to a count of about […] from the fifth dilution well, i.e. with DF=5. Such a count of about 7 is generally observed when bacteria are exposed to non-biocidal materials. In case no surviving colonies are observed in any segment of the TSA plate, this is interpreted as complete kill and a value of NMBS=0 is reported.
S. aureus Bacterial stock was prepared as shown below and the antibacterial efficacy of the active was carried out as explained earlier for E. Coli.
An overnight culture of Staphylococcus aureus (10788 strain) was inoculated onto a Tripticase Soy Agar (TSA) plate and grown for ca. 18 hrs at 37° C. The culture of S. aureus was washed from the plate using sterile saline (0.85% NaCl) solution and a sterile spreader and suspended in 50 ml saline. This suspension was separated into equal volumes and centrifuged at 4000 rpm for 15 minutes. Following centrifugation the pellet was re-suspended in saline to give a final concentration of 0.35 OD620 equivalent to about 10^8 cells per milliliter for this particular organism. Here. OD620 indicates the absorbance of a sample in a cuvette of 1.0 cm path length at a wavelength of 620 nm. This bacterial stock was used for assaying against antimicrobial actives (in triplicate).

[4] = test system: Escherichia coli (10536 strain); assay: Antimicrobial efficacy in water, 15 seconds contact, mean bacterial survival NMBS on TSA plates; assay type: cell-based; details: E. coli, 15 s
Method: Antimicrobial efficacy is tested against a representative pathogenic bacterial organism, Gram negative Escherichia coli. Concentrations of actives are expressed in terms of the percentage weight/volume (% w/v) throughout the following Examples. […] Here, OD620 indicates the absorbance of a sample in a cuvette of 1.0 cm path length at a wavelength of 620 nm. This bacterial stock was used for assaying against antimicrobial actives (in triplicate). The following assay describes the testing of 8 materials using 6 dilutions across half of a 96-well micro titre plate (MTP). […] 1M solutions of the test actives were prepared in dimethylsulphoxide (DMSO). […] This MTP was labelled as the “Screening plate”. […] The composition of the neutralising solution was as follows: pancreatic digest of casein, 5.0 g/L; […] 270 μl of tryptone diluent solution was added to all the remaining wells of the Dilution MTP (columns 2-6). […] After a contact time of 15 seconds, the mixtures were quenched by transferring 30 μl volumes of the mixtures into the 270 μl D/E neutralising solution in the prepared dilution plate, using aspiration to mix. […] Mean bacterial survival numbers NMBS (expressed in Log CFU/ml) are obtained by first determining the segment of the TSA plate where the number of bacterial colonies is countable. From the colony number in this segment. NMBS is calculated by the formula: […] DF may range from 1 for the quench, to 6 for the highest dilution). The factor 100/3 is a conversion factor from the volume of the inocula spot to one milliliter. Every assay test was performed in triplicate. The reported mean bacterial survival results are the average of such a triplet, the error is the corresponding standard deviation. […] Such a count of about 7 is generally observed when bacteria are exposed to non-biocidal materials.

[5] = Escherichia coli, ATCC10536, 15 s, read-out: MBC

C=C(C)C1CC=C(C)C(O)C1 (centres unmarked) [2-methyl-5-(prop-1-en-2-yl)cyclohex-2-enol]
MBC of the component acting alone (QA or QB; Qa or Qb with the other component at 0) [1]: 0.7 weight % | MBC [2, 5]: 4000 µg/mL | No. of replicates showing growth (out of 4) ([2]; single active at 0.2% w/v): 4 | Δ OD 590 nm = OD590 (time = 16 hours) − OD590 (time zero), Mean ([2]; single active at 0.2% w/v): 0.61 | ΔOD 450 nm = OD450 (time = 16 hours) − OD450 (time zero), Mean ([2]; single active at 0.2% w/v): −0.51 | No. of replicates showing growth (out of 4) ([2]; single active at 0.3% w/v): 4 | Δ OD 590 nm = OD590 (time = 16 hours) − OD590 (time zero), Mean ([2]; single active at 0.3% w/v): 0.59 | ΔOD 450 nm = OD450 (time = 16 hours) − OD450 (time zero), Mean ([2]; single active at 0.3% w/v): −0.50 | No. of replicates showing growth (out of 4) ([2]; single active at 0.4% w/v): 4 | Δ OD 590 nm = OD590 (time = 16 hours) − OD590 (time zero), Mean ([2]; single active at 0.4% w/v): 0.47 | ΔOD 450 nm = OD450 (time = 16 hours) − OD450 (time zero), Mean ([2]; single active at 0.4% w/v): −0.35 | No. of replicates showing growth (out of 4) ([2]; single active at […] w/v): 4 | Δ OD 590 nm = OD590 (time = 16 hours) − OD590 (time zero), Mean ([2]; single active at […] w/v): 0.63 | ΔOD 450 nm = OD450 (time = 16 hours) − OD450 (time zero), Mean ([2]; single active at […] w/v): −0.50 | NMBS ([3]; 0.5% w/v alone, S. aureus): 7.27 log CFU/ml

CCCc1ccccc1O [2-n-propylphenol]
MBC [2]: 0.175 % w/v | No. of replicates showing growth (out of 4) ([2]; single active at 0.05% w/v): 4 | Δ OD 590 nm = OD590 (time = 16 hours) − OD590 (time zero), Mean ([2]; single active at 0.05% w/v): 0.46 | No. of replicates showing growth (out of 4) ([2]; single active at […] w/v): 4 | Δ OD 590 nm = OD590 (time = 16 hours) − OD590 (time zero), Mean ([2]; single active at […] w/v): 0.66 | NMBS ([4]; 0.06% w/v alone): 7.68 log CFU/ml | NMBS ([3]; 0.03% w/v alone, S. aureus): 7.12 log CFU/ml | bacterial kill (in words) ([3]; […] 2-propylphenol alone, S. aureus): Complete bacterial kill | MBC ([3]; component alone, against S. aureus, in water): 0.25 % w/v

C=C(C)C1CCC(C)CC1O (centres unmarked) [isopulegol, 5-methyl-2-(prop-1-en-2-yl)cyclohexanol]
MBC [2, 5]: > 5000 µg/mL | No. of replicates showing growth (out of 4) ([2]; single active at 0.3% w/v): 4 | Δ OD 590 nm = OD590 (time = 16 hours) − OD590 (time zero), Mean ([2]; single active at 0.3% w/v): 0.61 | ΔOD 450 nm = OD450 (time = 16 hours) − OD450 (time zero), Mean ([2]; single active at 0.3% w/v): −0.49 | No. of replicates showing growth (out of 4) ([2]; single active at 0.5% w/v): 2 | Δ OD 590 nm = OD590 (time = 16 hours) − OD590 (time zero), Mean ([2]; single active at 0.5% w/v): 0.42 | ΔOD 450 nm = OD450 (time = 16 hours) − OD450 (time zero), Mean ([2]; single active at 0.5% w/v): −0.09 | No. of replicates showing growth (out of 4) ([2]; single active at […] w/v): 4 | Δ OD 590 nm = OD590 (time = 16 hours) − OD590 (time zero), Mean ([2]; single active at […] w/v): 0.59 | ΔOD 450 nm = OD450 (time = 16 hours) − OD450 (time zero), Mean ([2]; single active at […] w/v): −0.54 | NMBS ([4]; 0.3% w/v alone): 0 log CFU/ml | NMBS ([4]; 0.4% w/v alone): 0 log CFU/ml | NMBS ([4]; […] w/v alone): 7.77 log CFU/ml | MBC ([4]; component alone, in water): 0.3 % (w/v)

Reference: patent publication US9820483B2, “Microbial composition” (Rohm and Haas Company, priority 2011, dated 2017)
